In US8685462B1, “Whole, leech saliva product and applications thereof” (priority 2012, dated 2014):

Experiments:
[1] = test system: Candida albicans ATCC10231; assay: Kirby-Bauer disc diffusion; conditions: reference antibiotic disc, 100 unit
[2] = test system: Cryptococcus neoformans ATCC90112; assay: Kirby-Bauer disc diffusion; conditions: reference antibiotic disc, 100 unit
[3] = test system: induced-diabetic rats; assay: Antihyperglycemic activity: fasting blood glucose in alloxan-induced diabetic rats; format: in vivo, rat

Row | Compound | Zone of inhibition [1] [mm] | Zone of inhibition [2] [mm] | FBG after two hours of injection ([3]; diabetic rats, s.c., two hours) | difference between normal rats and treated diabetic rats ([3]; either dose) | FBG after 8 hours of treatment ([3]; lower dose of insulin (10 units/kg b.w))
1 | C[C@@H]1[C@H](O)[C@@H](C)/C=C/C=C/CC/C=C/C=C/C=C/C=C/C(O[C@H]2O[C@H](C)[C@@H](O)[C@H](N)[C@@H]2O)CC2O[C@](O)(CC(O)C(O)CCC(O)CC(O)CC(O)CC(=O)O[C@H]1C)CC(O)C2C(=O)O (some centres unmarked) [Nystatin, nystatin] | 10 | 9 | – | – | –
2 | insulin: insulin from bovine pancreas (≧27 units/mg), suspension in distilled water | – | – | sharp significant decrease | No significant difference | returned to the diabetic state
